The text below walks through data of patent US10935498B1, “Fluorescent probe for detecting nitroreductase and preparation method and use thereof in enzymatic reaction” (SOUTH CHINA UNIVERSITY OF TECHNOLOGY, priority 2018, dated 2021).

Data set [1] can be described thus: Solubility (stated property). In kind it is physicochemical.
Data set [2] is described as follows: Toxicity (stated property).
Another data set has as its system nitroreductase. In words: Fluorescent response of the probe to nitroreductase (NTR) in PBS buffer. In kind it is biochemical. Particulars: probe 10 μM, excitation 500 nm. The method, then: 1.5 mg of the solid fluorescent compound, 3-(4-(2-(4′-(diphenylamino)-3-((4-nitrobenzyl)oxy)-[1,1′-biphenyl]-4-yl)vinyl)quinolin-1-ium-1-yl)propane-1-sulfonate (TAE-NQS, prepared in Example 1), was dissolved in 2 mL of DMSO, and prepared into a 1 mM stock solution of the fluorescent compound. Before the test, of the fluorescent compound was diluted with a phosphate buffer (10 mM, pH 7.4), and a solution system to be tested containing 1% DMSO was obtained (final concentration of the probe was 10 μM).
3 μL of the above-mentioned stock solution of the fluorescent compound was drawn, and a blank control sample and test samples were prepared with PBS buffer solution (10 mM, pH=7.4). […] The samples were incubated at 37° C. for 15 minutes, then the absorption spectra ranging from 350 nm to 700 nm were recorded, and the fluorescence spectra were measured under the excitation light of 500 nm. […]
When the concentration of NTR was 2 μg/mL and the concentration of the probe was 10 μM, the fluorescence intensity varied over time, shown as FIG. 7. […] By controlling the temperature to be 37° C. and the incubation time to be 5 minutes, the fluorescence spectra under the excitation wavelength of 500 nm for each test sample were recorded. […]

Data set [3] is described as follows: Photostability (stated property). Format: physicochemical.

For `O=[N+]([O-])c1ccc(COc2cc(-c3ccc(N(c4ccccc4)c4ccccc4)cc3)ccc2C=Cc2cc[n+](CCCS(=O)(=O)[O-])c3ccccc23)cc1` [TAE-NQS, 3-(4-(2-(4′-(diphenylamino)-3-((4-nitrobenzyl)oxy)-[1,1′-biphenyl]-4-yl)vinyl)quinolin-1-ium-1-yl)propane-1-sulfonate], in data set [1] (DMSO, DMF), the “solubility in solvents such as DMSO and DMF” value is “easily soluble”. Moreover, the solubility in water entry in data set [1] (water) is “slightly soluble”. Besides, the toxicity result in data set [2] was “non-toxic”. Further, in the data set with nitroreductase (NTR 0 μg/mL to 5 μg/mL, PBS pH 7.4, 37° C.), the “time in which the enzymatic reaction was completed” value is not above 30 min. Moreover, in the data set on nitroreductase (nitroreductase 2 μg/mL, NADH 100 μM, PBS 10 mM pH 7.4, 37° C., 15 minutes), the “fluorescence intensity compared with the blank sample” value was “changed significantly”. Besides, the photostability result in data set [3] is “good”.
